Where two headings read alike, the source gives them in different places.
Tests used:
[1] = type: physicochemical
Septoria tritici = assay: In vivo preventive test on Septoria tritici (leaf spot on wheat); settings: 500 ppm; wheat plants sprayed 24 hours before contamination; grading 21 to 28 days after contamination vs control plants
Protocol: Wheat plants (“Scipion” variety), sown in starter cups on a 50/50 peat soil-pozzolana substrate and grown at 22° C. (12 h)/20° C. (12 h), are treated at the 1-leaf stage (10 cm height) by spraying with the active ingredient prepared as described above. Plants, used as controls, are treated with the mixture of acetone/tween/DMSO/water not containing the active material. After 24 hours, the plants are contaminated by spraying the leaves with an aqueous suspension of cryopreserved Septoria tritici spores (500 000 spores per ml). […] Grading (% of efficacy) is carried out 21 to 28 days after the contamination, in comparison with the control plants.

[2] = HPLC on reversed phase columns, method [a]: pH 2.7, 0.1% formic acid in water / acetonitrile, linear gradient 10% to 95% acetonitrile
[3] = method [a]: HPLC/LC-MS on reversed phase at pH 2.7, 0.1% formic acid in water / acetonitrile, gradient 10% to 95% acetonitrile
[4] = method [a]: HPLC/LC-MS on reversed phase at pH 2.7, 0.1% formic acid in water / acetonitrile, linear gradient 10% to 95% acetonitrile

SMILES | log P [1, 2] | % of efficacy (protection) (Septoria tritici) | log P [1, 4] | further results
C#Cc1cnc2ccc(C3=NOC(C)(C(=O)NC(C)c4ccccc4Cl)C3)cc2c1 (centres unmarked) [compound 349] | 3.42[a] | 94% | – | –
CC1(C(=O)NC2CCCC2)CC(c2ccc3ncc(Br)cc3c2)=NO1 (racemic) [compound 390] | – | 98% | – | log P [1, 3]: 3.29[a]
CCn1cc(CNC(=O)C2(C)CC(c3cc4cc(Br)cnc4c(OC)c3OC)=NO2)c(C)n1 (centres unmarked) [compound 30] | – | 100% | 2.42^[a] | –
C#Cc1cnc2ccc(C3=NOC(C)(C(=O)NC(C)c4ccncc4)C3)cc2c1 (centres unmarked) [compound 335] | 1.28[a] | 78% | – | –
C#Cc1cnc2ccc(C3=NOC(OC)(C(=O)N(OC)C(C)C)C3)cc2c1 (centres unmarked) [compound 468] | – | 100% | – | log P [1, 3]: 2.96[a]
COC1(C(=O)N(C)C)CC(c2ccc3ncc(Br)cc3c2)=NO1 (centres unmarked) [compound 396] | – | 97% | – | log P [1, 3]: 2.51[a]
CC(NC(=O)C1(C)CC(c2ccc3ncc(Br)cc3c2)=NO1)c1nccs1 (centres unmarked) [compound 310] | 2.56[a] | 100% | – | –
CC(C)NC(=O)C1(CF)CC(c2ccc3ncc(Br)cc3c2)=NO1 (centres unmarked) [compound 76] | – | 75% | 2.46^[a] | –
CC(NC(=O)C1(C)CC(c2ccc3ncc(Br)cc3c2)=NO1)c1ccsc1 (centres unmarked) [compound 295] | 3.35[a] | 80% | – | –
C=CC1(C(=O)NCC2COC(C)(C)O2)CC(c2ccc3ncc(Br)cc3c2)=NO1 (centres unmarked) [compound 732] | – | 100% | – | log P ([1]; HPLC on reversed phase columns, method [a]: pH 2.7, 0.1% formic acid in water and acetonitrile, linear gradient 10% to 95% acetonitrile): 2.98[a]
CCC(NC(=O)C1(C)CC(c2ccc3ncc(Br)cc3c2)=NO1)c1cn(CC)nc1C (centres unmarked) [compound 311] | 2.77[a] | 100% | – | –
C#Cc1cnc2ccc(C3=NOC(C)(C(=O)NCc4cnn(-c5ccccc5)n4)C3)cc2c1 (centres unmarked) [compound 189] | – | 71% | 3.11^[a] | –
C#Cc1cnc2ccc(C3=NOC(C)(C(=O)NCc4ccc(-c5csnn5)cc4)C3)cc2c1 (centres unmarked) [compound 86] | – | 75% | 2.82^[a] | –
CCOC1(C(=O)NCc2cn(CC)nc2C)CC(c2ccc3ncc(Br)cc3c2)=NO1 (centres unmarked) [compound 416] | – | 100% | – | log P [1, 3]: 1.95[a]
CCn1cc(CNC(=O)C2(C)CC(c3ccc4nc(OC)c(I)cc4c3)=NO2)c(C)n1 (centres unmarked) [compound 472] | – | 75% | – | log P [1, 3]: 3.11[a]
CCOCCCNC(=O)C1(Cc2ccccc2)CC(c2ccc3ncc(Br)cc3c2)=NO1 (centres unmarked) [compound 59] | – | 70% | 3.8^[a] | –
CCn1cc(CNC(=O)C2(C(C)C)CC(c3ccc4ncc(Br)cc4c3)=NO2)c(C)n1 (centres unmarked) [compound 61] | – | 80% | 2.94^[a] | –
CC1(C)OCC(CNC(=O)C2(C(F)F)CC(c3ccc4ncc(I)cc4c3)=NO2)O1 (centres unmarked) [compound 618] | 3.06[a] | 93% | – | –
C#Cc1cnc2ccc(C3=NOC(C)(C(=O)NC(C)(C)C)C3)cc2c1 (centres unmarked) [compound 322] | 3.00[a] | 98% | – | –
CCC(C)NC(=O)C1(C)CC(c2cc3cc(Br)cnc3c(OC)c2OC)=NO1 (centres unmarked) [compound 28] | – | 100% | 3.21^[a] | –
Cc1ccc(CNC(=O)C2(C)CC(c3ccc4ncc(Br)cc4c3)=NO2)n1C (centres unmarked) [compound 152] | – | 71% | 3.21^[a] | –
C#Cc1cc2cc(C3=NOC(C)(C(=O)NCc4cn(CC)nc4C)C3)ccc2nc1OC (centres unmarked) [compound 490] | – | 88% | – | log P [1, 3]: 2.55[a]
C#Cc1cnc2ccc(C3=NOC(C)(C(=O)NCC(OC)OC)C3)cc2c1 (racemic) [compound 366] | – | 100% | – | log P [1, 3]: 2.13[a]
C#Cc1cnc2ccc(C3=NOC(C)(C(=O)NC(C)c4cccc5ccccc45)C3)cc2c1 (centres unmarked) [compound 339] | 3.85[a] | 78% | – | –
Cc1cc(NC(=O)C2(C)CC(c3cc4cc(Br)cnc4c(F)c3F)=NO2)n(C)n1 (centres unmarked) [compound 18] | – | 93% | – | Log P ([1]; method [a]: HPLC/LC-MS on reversed phase at pH 2.7, 0.1% formic acid in water and acetonitrile, linear gradient 10% to 95% acetonitrile): 2.6^[a]
CCn1cc(NC(=O)C2(C)CC(c3ccc4ncc(Br)cc4c3)=NO2)c(C)n1 (centres unmarked) [compound 489] | – | 93% | – | log P [1, 3]: 2.50[a]
CCn1cc(CNC(=O)C2(C)CC(c3cc4cc(Br)cnc4c(F)c3OC)=NO2)c(C)n1 (centres unmarked) [compound 29] | – | 100% | 2.47^[a] | –
C#Cc1cnc2ccc(C3=NOC(C)(C(=S)NCc4cnn(C)c4C)C3)cc2c1 (racemic) [compound 443] | – | 88% | – | log P [1, 3]: 2.76[a]

SMILES | log P [1, 2] | % of efficacy (protection) (Septoria tritici) | log P [1, 4] | further results
Cc1cnc(CNC(=O)C2(C)CC(c3cc(Cl)c4ncc(Br)cc4c3)=NO2)cn1 (centres unmarked) [compound 556] | 2.64[a] | 97% | – | –
CC(C)c1noc(C(C)NC(=O)C2(C)CC(c3ccc4ncc(Br)cc4c3)=NO2)n1 (centres unmarked) [compound 331] | 3.23[a] | 83% | – | –
CC1(C(=O)NC2CCOCC2)CC(c2ccc3ncc(Br)cc3c2)=NO1 (centres unmarked) [compound 307] | 2.27[a] | 100% | – | –
CC(C)NC(=O)C1ON=C(c2ccc3ncc(Br)cc3c2)C1C (racemic) [compound 376] | – | 86% | – | log P [1, 3]: 2.64[a]
C#Cc1cnc2ccc(C3=NOC(C)(C(=O)NC(C)C4CC4)C3)cc2c1 (centres unmarked) [compound 330] | 2.78[a] | 100% | – | –
C#Cc1cnc2ccc(C3=NOC(C)(C(=O)NCC4CCOc5ccccc54)C3)cc2c1 (centres unmarked) [compound 223] | – | 71% | 3.11^[a] | –
CCn1cc(CNC(=O)C2(F)CC(c3ccc4ncc(Br)cc4c3)=NO2)c(C)n1 (centres unmarked) [compound 279] | 2.38[a] | 75% | – | –
CCn1cc(CNC(=O)C2(C)CC(c3ccc4ncc(C#C[Si](C)(C)C)cc4c3)=NO2)c(C)n1 (centres unmarked) [compound 149] | – | 93% | 3.79^[a] | –
COC(CNC(=O)C1(C)CC(c2ccc3ncc(Br)cc3c2)=NO1)OC (centres unmarked) [compound 290] | 2.39[a] | 96% | – | –
C#Cc1cnc2ccc(C3=NOC(C)(C(=O)NC(c4cccc(Cl)c4)C(F)(F)F)C3)cc2c1 (centres unmarked) [compound 357] | 3.94[a] | 78% | – | –
CCOc1cnc2ccc(C3=NOC(C)(C(=O)NCc4cn(CC)nc4C)C3)cc2c1 (centres unmarked) [compound 417] | – | 100% | – | log P [1, 3]: 2.09[a]
CCONC(=O)C1(C)CC(c2ccc3ncc(Br)cc3c2)=NO1 (racemic) [compound 389] | – | 100% | – | log P [1, 3]: 2.17[a]
C#Cc1cnc2ccc(C3=NOC(C)(C(=O)NCc4ccc(C)n4C)C3)cc2c1 (centres unmarked) [compound 153] | – | 71% | 2.88^[a] | –
CCn1cc(CNC(=O)C2(CBr)CC(c3ccc4ncc(Br)cc4c3)=NO2)c(C)n1 (centres unmarked) [compound 137] | – | 93% | 2.62^[a] | –
CC#Cc1cnc2ccc(C3=NOC(C)(C(=O)NCc4cn(CC)nc4C)C3)cc2c1 (racemic) [compound 378] | – | 97% | – | log P [1, 3]: 2.35[a]
CC(NC(=O)C1(C)CC(c2ccc3ncc(Br)cc3c2)=NO1)c1ccccc1 (centres unmarked) [compound 292] | 3.46[a] | 96% | – | –
C#Cc1cnc2ccc(C3=NOC(C)(C(=O)NC(CN4CCCC4)C4CC4)C3)cc2c1 (centres unmarked) [compound 361] | 1.37[a] | 78% | – | –
C#Cc1cnc2ccc(C3=NOC(C)(C(=O)NCC4CCC(C(F)(F)F)CC4)C3)cc2c1 (centres unmarked) [compound 121] | – | 75% | 3.61^[a] | –
COC1(C(=S)NC(C)C)CC(c2ccc3ncc(Br)cc3c2)=NO1 (centres unmarked) [compound 410] | – | 100% | – | log P [1, 3]: 3.69[a]
C#Cc1cnc2ccc(C3=NOC(C)(C(=O)NCC4CCCOC4c4ccccc4)C3)cc2c1 (centres unmarked) [compound 222] | – | 71% | 3.11^[a] | –
Cc1nn(C(C)C)c(C)c1CNC(=O)C1(C)CC(c2ccc3ncc(Br)cc3c2)=NO1 (centres unmarked) [compound 184] | – | 71% | 2.6^[a] | –
CC1(C(=O)NCc2cn[nH]c2-c2cccs2)CC(c2ccc3ncc(Br)cc3c2)=NO1 (centres unmarked) [compound 191] | – | 71% | 2.51^[a] | –
C#Cc1cnc2ccc(C3=NOC(OC)(C(=O)NC(C)(C)c4ccon4)C3)cc2c1 (centres unmarked) [compound 509] | – | 97% | – | log P [1, 3]: 2.52[a]
CCn1cc(CNC(=O)C2(C)CC(c3ccc4ncc(Cl)cc4c3)=NO2)c(C)n1 (centres unmarked) [compound 54] | – | 100% | 2.28^[a] | –
CC1(C(=O)NCc2ccccc2)CC(c2ccc3ncc(Br)cc3c2)=NO1 (centres unmarked) [compound 91] | – | 75% | 3.21^[a] | –
C#Cc1cnc2ccc(C3=NOC(C)(C(=O)NC(C)c4sc(C)nc4C)C3)cc2c1 (centres unmarked) [compound 333] | 2.20[a] | 98% | – | –
CC1(C(=O)NCc2ccc3ncsc3c2)CC(c2ccc3ncc(Br)cc3c2)=NO1 (centres unmarked) [compound 243] | 2.7^[a] | 71% | – | –
